According to patent US20260232666A1, “COMPOSITIONS AND METHODS FOR INHIBITION OF RAS” (TheRas, Inc., priority 2023, published 2026):

Legend:
[1] = biological target: T1, Avi-KRAS G12C (1-169) GppNHp/RAF1 RBD-3×FLAG (52-151) (Homo sapiens, UniProt P01116, G12C); experiment: Raf1 RBD-KRAS G12C-GppNHp disruption assay (protein:protein interaction HTRF); format: biochemical
T1 construct: Avi-KRAS G12C (1-169) GppNHp; Avi (N)
In short: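 HTRF measuring RAF1 RBD binding to GppNHp-loaded KRAS G12C (50 nM) in Tris pH 7.5, 100 mM NaCl, 5 mM MgCl2, 10% DMSO. Compound, KRAS, RBD and detection reagents each added sequentially with 1 h room-temperature incubations; 10-point titration; excitation 320 nm, emission 615 nm; activity as % of DMSO; IC50 derived.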

[2] = biological target: T2, GTP-loaded KRAS4b (amino acids 1-169) G12C/C118S protein (Homo sapiens, UniProt P01116, C118S/G12C); experiment: Covalent cysteine 12 modification by MALDI-TOF MS, GTP-loaded KRAS G12C; format: binding; conditions: 15 minutes reaction time point
T2 construct: KRAS4b (amino acids 1-169) G12C/C118S protein; made in house
In short: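 Covalent adduct formation measured by linear-mode MALDI-TOF MS as modified peak height over summed peak heights, 15 min time point reported. Reactions: KRAS4b 1-169 G12C/C118S (1 μM, loaded with GppNHp, GTP or GDP) plus compound at 1:2.5 ratio, pH 7.3 HEPES/NaCl/MgCl2, room temperature.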

SMILES | IC50 [1] [nM] | GTP-KRAS G12C percent of modification [2]
C=CC(=O)N1CC[C@@H](N(C)c2nc(OC[C@@H]3C[C@@H](OC)CN3CC)nc3c(F)c(-c4ccc(F)c5sc(N)c(C#N)c45)c(Cl)cc23)[C@@H]1C [Compound 100] | < 500 | C (10%≤percent of modification <50%)
C=CC(=O)N1CC[C@@H](N(C)c2nc(OC[C@@H]3C[C@@H](F)CN3C)nc3c(F)c(-c4ccc(F)c5sc(N)c(C#N)c45)c(Cl)cc23)[C@H]1C [Compound 61] | < 500 | C (10%≤percent of modification <50%)
C=CC(=O)N1CC[C@@H](N(C)c2nc(OC[C@@H]3CCCN3C)nc3c(F)c(-c4ccc(F)c5sc(N)c(C#N)c45)c(Cl)cc23)[C@H]1C [Compound 59] | < 500 | A (percent of modification ≥70%)
C=CC(=O)N1CC[C@@H](N(C)c2nc(OC[C@@H]3CCCN3C)nc3c(F)c(-c4ccc(F)c5sc(N)c(C#N)c45)c(Cl)cc23)[C@@H]1C [Compound 83] | < 500 | B (50≤percent of modification <70%)
C=CC(=O)N1CC[C@@H](N(CC)c2nc(OC[C@@]34CCCN3C[C@H](F)C4)nc3cc(-c4ccc(F)c5sc(N)c(C#N)c45)c(C#N)cc23)[C@@H]1C [Compound 56] | < 500 | C (10%≤percent of modification <50%)
C=CC(=O)N1CC[C@@H](N(C)c2nc(OC[C@@H]3CCCN3C)nc3c(F)c(-c4ccc(F)c5sc(N)c(C#N)c45)c(C(F)(F)F)cc23)[C@H]1C [Compound 67] | < 500 | A (percent of modification ≥70%)
C=CC(=O)N1CC[C@@H](N(C)c2nc(OC[C@@H]3C[C@@H](F)CN3C)nc3c(F)c(-c4ccc(F)c5sc(N)c(C#N)c45)c(C(F)(F)F)cc23)[C@H]1C [Compound 55] | < 500 | A (percent of modification ≥70%)
C=CC(=O)N1CC[C@@H](N(C)c2nc(OC[C@@]34CCCN3C[C@H](F)C4)nc3c(F)c(-c4ccc(F)c5sc(N)c(C#N)c45)c(Cl)cc23)[C@@H]1C (atropisomer, axis not shown) [Compound 68] | < 500 | A (percent of modification ≥70%)
C=CC(=O)N1CC[C@@H](N(CC)c2nc(OC[C@@]34CCCN3C[C@H](F)C4)nc3c(F)c(-c4ccc(F)c5sc(N)c(C#N)c45)c(C(F)(F)F)cc23)[C@@H]1C [Compound 86] | < 500 | B (50≤percent of modification <70%)
C=CC(=O)N1CCC(N(C)c2nc(OC[C@@H]3CCCN3C3CC3)nc3c(F)c(-c4ccc(F)c5sc(N)c(C#N)c45)c(C(F)(F)F)cc23)[C@H]1C (stereo partly shown) [Compound 1] | < 500 | C (10%≤percent of modification <50%)
C=CC(=O)N1CC[C@@H](N(CC)c2nc(OC[C@@]34CCCN3C[C@H](F)C4)nc3cc(-c4ccc(F)c5sc(N)c(C#N)c45)c(F)cc23)[C@H]1CC [Compound 76] | < 500 | B (50≤percent of modification <70%)
C=CC(=O)N1CC[C@@H](N(C)c2nc(OC[C@@H]3C[C@@H](OC)CN3C)nc3c(F)c(-c4ccc(F)c5sc(N)c(C#N)c45)c(Cl)cc23)[C@@H]1C [Compound 79] | < 500 | C (10%≤percent of modification <50%)
C=CC(=O)N1CC[C@@H](N(C)c2nc(OC[C@@]34CCCN3C[C@H](F)C4)nc3cc(-c4ccc(F)c5sc(N)c(C#N)c45)c(C#N)cc23)[C@H]1CC [Compound 42] | < 500 | A (percent of modification ≥70%)
C=CC(=O)N1CC[C@@H](N(C)c2nc(OC[C@@]34CCCN3C[C@H](F)C4)nc3c(F)c(-c4nc(N)cc(C)c4C(F)(F)F)c(C(F)(F)F)cc23)[C@@H]1C [Compound 91] | < 500 | C (10%≤percent of modification <50%)
C=CC(=O)N1CC[C@@H](N(CC)c2nc(OC[C@@]34CCCN3C[C@H](F)C4)nc3cc(-c4ccc(F)c5sc(N)c(C#N)c45)c(F)cc23)[C@@H]1CC [Compound 41] | 500 to 5000 | D (percent of modification <10%)
C=CC(=O)N1CC[C@@H](N(CC)c2nc(OC[C@@H]3C[C@@H](F)CN3C)nc3c(F)c(-c4ccc(F)c5sc(N)c(C#N)c45)c(Cl)cc23)[C@H]1C [Compound 60] | < 500 | B (50≤percent of modification <70%)

SMILES | IC50 [1] [nM] | GTP-KRAS G12C percent of modification [2]
C=CC(=O)N1CC[C@@H](N(CC)c2nc(OC[C@@H]3CC4(CC4)CN3C)nc3c(F)c(-c4ccc(F)c5sc(N)c(C#N)c45)c(Cl)cc23)[C@H]1C [Compound 75] | < 500 | A (percent of modification ≥70%)
C=CC(=O)N1CC[C@@H](N(C)c2nc(OC[C@@]34CCCN3C[C@H](F)C4)nc3c(F)c(-c4ccc(F)c5sc(N)c(C#N)c45)c(Cl)cc23)[C@@H]1C (atropisomer, axis not shown) [Compound 69] | 500 to 5000 | D (percent of modification <10%)
C=CC(=O)N1CCC(N(C)c2nc(OC[C@@]34CCCN3C[C@H](F)C4)nc3c(F)c(-c4ccc(F)c5sc(N)c(C#N)c45)c(Cl)cc23)[C@H]1CC (stereo partly shown) [Compound 2] | 500 to 5000 | D (percent of modification <10%)
C=CC(=O)N1CC[C@@H](N(CC)c2nc(OC[C@@]34CCCN3C[C@H](F)C4)nc3c(F)c(-c4ccc(F)c5sc(N)c(C#N)c45)ccc23)[C@@H]1CC [Compound 50] | 500 to 5000 | D (percent of modification <10%)
C=CC(=O)N1CC[C@@H](N(C)c2nc(OC[C@@H]3CC4(CC4)CN3C)nc3c(F)c(-c4ccc(F)c5sc(N)c(C#N)c45)c(Cl)cc23)[C@H]1C [Compound 64] | < 500 | B (50≤percent of modification <70%)
C=CC(=O)N1CC[C@@H](N(C)c2nc(OC[C@@H]3CC4(CC4)CN3CC)nc3c(F)c(-c4ccc(F)c5sc(N)c(C#N)c45)c(C(F)(F)F)cc23)[C@@H]1C [Compound 95] | < 500 | B (50≤percent of modification <70%)
C=CC(=O)N1CC[C@@H](N(CC)c2nc(OC[C@@H]3C[C@@H](OC)CN3C)nc3c(F)c(-c4ccc(F)c5sc(N)c(C#N)c45)c(Cl)cc23)[C@H]1C [Compound 73] | < 500 | C (10%≤percent of modification <50%)
C=CC(=O)N1CC[C@@H](N(C)c2nc(OC[C@@H]3CC4(CC4)CN3CC)nc3c(F)c(-c4ccc(F)c5sc(N)c(C#N)c45)c(Cl)cc23)[C@@H]1C [Compound 92] | < 500 | B (50≤percent of modification <70%)
C=CC(=O)N1CC[C@@H](N(C)c2nc(OC[C@@H]3C[C@@H](OC)CN3C)nc3c(F)c(-c4ccc(F)c5sc(N)c(C#N)c45)c(Cl)cc23)[C@H]1C [Compound 63, 4-(4-(((2R,3R)-1-acryloyl-2-methylpyrrolidin-3-yl)(methyl)amino)-6-chloro-8-fluoro-2-(((2S,4R)-4-methoxy-1-methylpyrrolidin-2-yl)methoxy)quinazolin-7-yl)-2-amino-7-fluorobenzo[b]thiophene-3-carbonitrile] | < 500 | B (50≤percent of modification <70%)
C=CC(=O)N1CC2CCC(C1)N2c1nc(OC[C@@]23CCCN2C[C@H](F)C3)nc2c(F)c(-c3ccc(F)c4sc(N)c(C#N)c34)c(C(F)(F)F)cc12 [Compound 49] | < 500 | D (percent of modification <10%)
C=CC(=O)N1CC[C@@H](N(C)c2nc(N3CC(N(C)C)C3)nc3c(F)c(-c4ccc(F)c5sc(N)c(C#N)c45)c(C(F)(F)F)cc23)[C@H]1C [Compound 80] | < 500 | C (10%≤percent of modification <50%)
C=CC(=O)N1CC[C@@H](N(C)c2nc(OC[C@@H]3CCCN3CC)nc3c(F)c(-c4ccc(F)c5sc(N)c(C#N)c45)c(C(F)(F)F)cc23)[C@H]1C [Compound 88] | < 500 | B (50≤percent of modification <70%)
C=CC(=O)N1CC[C@@H](N(CC)c2nc(OC[C@@H]3C[C@@H](OC)CN3C)nc3c(F)c(-c4ccc(F)c5sc(N)c(C#N)c45)c(C(F)(F)F)cc23)[C@H]1C [Compound 45, 4-(4-(((2R,3R)-1-acryloyl-2-methylpyrrolidin-3-yl)(ethyl)amino)-8-fluoro-2-(((2S,4R)-4-methoxy-1-methylpyrrolidin-2-yl)methoxy)-6-(trifluoromethyl)quinazolin-7-yl)-2-amino-7-fluorobenzo[b]thiophene-3-carbonitrile] | < 500 | B (50≤percent of modification <70%)
C=CC(=O)N1CC[C@@H](N(CC)c2nc(OC[C@@]34CCCN3C[C@H](F)C4)nc3c(F)c(-c4ccc(F)c5sc(N)c(C#N)c45)ccc23)[C@@H]1C [Compound 57] | < 500 | C (10%≤percent of modification <50%)
C=CC(=O)N1CC[C@@H](N(C)c2nc(OC[C@@H]3C[C@@H](F)CN3C)nc3c(F)c(-c4ccc(F)c5sc(N)c(C#N)c45)c(Cl)cc23)[C@@H]1C [Compound 82] | < 500 | C (10%≤percent of modification <50%)
C=CC(=O)N1CC[C@@H](N(CC)c2nc(OC[C@@]34CCCN3C[C@H](F)C4)nc3c(F)c(-c4ccc(F)c5sc(N)c(C#N)c45)c(C(F)(F)F)cc23)[C@H]1CC [Compound 39] | < 500 | C (10%≤percent of modification <50%)
